# What was measured:
# [1] = tested on: Chrysanthemum indicum (Variety: Yellow Delaware); test: Combating iron deficiency/leaf uptake test; assay type: in vivo
# Method: Test plant: Chrysanthemum indicum (Variety: Yellow Delaware)
# Culture substrate: Mixture of polystyrene foam flock (Styromull) and potassium alginate in the volume ratio of 10:1
# To prepare a suitable formulation of the active compound, the particular amount of active compound desired was dissolved in water.
# Test plants were grown in a culture substrate of the composition indicated above, fertilization and watering being effected by adding, twice weekly, a mineral-iron-deficient nutrient solution according to Hoagland and Arnon (Circular 347, College of Agriculture, University of California, Berkeley 1950). […] After 2 days the plants were again sprayed with the active compound formulation in the same manner.
# The evaluation took place when an average of 2 leaves had newly formed on the plants treated with an optimum amount of a water-soluble, commercially available iron fertilizer, in each case, the average number of newly formed leaves was determined on all test plants. Furthermore, the intensity of the green colour of newly formed leaves was rated and expressed as a numerical code.
# In this, the figures denoted:
# 1=0% chlorotic (dark green)
# 9=100% chlorotic (corresponding to the untreated control plants)
# [2] = Water solubility of the preparation; assay type: physicochemical
# [3] = nutrient preparation in the spray liquor 0.03 %
# [4] = nutrient preparation in the spray liquor 0.16 %
# [5] = nutrient preparation in the spray liquor 0.78 %
# [6] = nutrient preparation in the spray liquor 0.12 %
# [7] = nutrient preparation in the spray liquor 0.59 %
# [8] = nutrient preparation in the spray liquor 0.13 %
# [9] = nutrient preparation in the spray liquor 0.62 %
# [10] = nutrient preparation in the spray liquor 0.66 %
# [11] = nutrient preparation in the spray liquor 0.14 %
# [12] = nutrient preparation in the spray liquor 0.15 %
# [13] = nutrient preparation in the spray liquor 0.74 %
smiles,measurement,setting,value
"CCCCCCCCCC(=O)[c-]1cccc1.[Fe+2].c1cc[cH-]c1 [Example 2, n-decanoyl-ferrocene]",Average number of newly formed leaves,[1]; [3],4
same,Intensity of the green colour of young leaves,[1]; [3],3 (25% chlorotic)
same,Average number of newly formed leaves,[1]; [4],5
same,Intensity of the green colour of young leaves,[1]; [4],2-3
same,Average number of newly formed leaves,[1]; [5],5
same,Intensity of the green colour of young leaves,[1]; [5],2
same,Water solubility of the preparation,[2],slight
"CCCCC(=O)[c-]1cccc1.[Fe+2].c1cc[cH-]c1 [Example 3, n-pentanoylferrocene]",Average number of newly formed leaves,[1]; [6],4
same,Intensity of the green colour of young leaves,[1]; [6],2-3
same,Average number of newly formed leaves,[1]; [7],4
same,Intensity of the green colour of young leaves,[1]; [7],2
same,Water solubility of the preparation,[2],slight
"CCCCCC(=O)[c-]1cccc1.[Fe+2].c1cc[cH-]c1 [Example 4, n-hexanoylferrocene]",Average number of newly formed leaves,[1]; [8],3
same,Intensity of the green colour of young leaves,[1]; [8],3 (25% chlorotic)
same,Average number of newly formed leaves,[1]; [9],3
same,Intensity of the green colour of young leaves,[1]; [9],2-3
same,Water solubility of the preparation,[2],slight
"CCCCCCC(=O)[c-]1cccc1.[Fe+2].c1cc[cH-]c1 [Example 5, n-heptanoylferrocene]",Average number of newly formed leaves,[1]; [8],4
same,Intensity of the green colour of young leaves,[1]; [8],3 (25% chlorotic)
same,Average number of newly formed leaves,[1]; [10],4
same,Intensity of the green colour of young leaves,[1]; [10],2-3
same,Water solubility of the preparation,[2],slight
"CCCCCCCC(=O)[c-]1cccc1.[Fe+2].c1cc[cH-]c1 [Example 6, n-octanoylferrocene]",Average number of newly formed leaves,[1]; [3],4
same,Intensity of the green colour of young leaves,[1]; [3],3 (25% chlorotic)
same,Average number of newly formed leaves,[1]; [11],5
same,Intensity of the green colour of young leaves,[1]; [11],2-3
same,Water solubility of the preparation,[2],slight
"CCCCCCCCC(=O)[c-]1cccc1.[Fe+2].c1cc[cH-]c1 [Example 7, n-nonaoylferrocene]",Average number of newly formed leaves,[1]; [3],4
same,Intensity of the green colour of young leaves,[1]; [3],3 (25% chlorotic)
same,Average number of newly formed leaves,[1]; [12],5
same,Intensity of the green colour of young leaves,[1]; [12],2-3
same,Average number of newly formed leaves,[1]; [13],5
same,Intensity of the green colour of young leaves,[1]; [13],2
same,Water solubility of the preparation,[2],slight

# Source: patent US4167405A, “Fertilizers for supplying plants with iron” (Bayer Aktiengesellschaft, priority 1977, dated 1979)
